The record followed here is PMC10418725, “Trypsin from Pyloric Caeca of Asian Seabass: Purification, Characterization, and Its Use in the Hydrolysis of Acid-Soluble Collagen” (Foods, 2023).

This test concerns purified trypsin (PT) from the pyloric caeca of Asian seabass. The experiment in a line: 4-nitroaniline release, A410; Lineweaver-Burk. Format: biochemical, Lates calcarifer. To be noted: 30 °C, optimal pH (8.5) per Table 3 footnote; free enzyme; b65 text prints 0.0078 (no unit).

What is called Km is the substrate concentration at which the rate is half of its maximum. On to `NC(N)=NCCCC(NC(=O)c1ccccc1)C(=O)Nc1ccc([N+](=O)[O-])cc1` (stereo not shown) [BAPNA], for which the Km was determined as 78 µM.
